Read-outs that look alike come from different tables or passages of the source.
Experiments:
[1] = target: T1, FGFR3 (Homo sapiens, UniProt P22607); assay: Kinase binding assay (kinase-tagged T7 phage, affinity beads, qPCR), Kd
T1 construct: made in house; host or cells: E. coli (BL21-derived), T7 phage
Method in brief: (§1)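 First, phage lysates carrying tagged kinase are made in E. coli at 32° C. Next, they are combined with blocked biotin-ligand streptavidin beads and compound at 0.9% final DMSO. Finally, eluted kinase is measured by qPCR and Kd is fitted with the Hill equation.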

[2] = target: T2, FGFR2 (Homo sapiens, UniProt P21802); assay: as above
T2 construct: made in house; host or cells: E. coli (BL21-derived), T7 phage
Method in brief: as §1

[3] = target: T3, FGFR1 (Homo sapiens, UniProt P11362); assay: as above
T3 construct: made in house; host or cells: E. coli (BL21-derived), T7 phage
Method in brief: as §1

[4] = target: T4, FGFR4 (Homo sapiens, UniProt P22455); assay: as above
T4 construct: made in house; host or cells: E. coli (BL21-derived), T7 phage
Method in brief: as §1

[5] = target: T5, FGFR3 (V555M) (Homo sapiens, UniProt P22607, V555M); assay: as above
T5 construct: made in house; host or cells: E. coli (BL21-derived), T7 phage
Method in brief: as §1

[6] = test system: KATO-III cell line (FGFR2 amplification); assay: Cancer cell line cell viability assay (Cell Titer-Glo), 72 hr; type: cell-based; conditions: Homo sapiens
Method in brief: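 5,000-20,000 cells/well o/n; cpd 9-pt 4x dil from 3 μM, n=3; 37° C/5% CO2; CTG 2.0 lumi; % DMSO ctrl; 4PL IC50.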

[7] = test system: KG-1 cell line (FGFR 1-fusion); assay: as above; type: cell-based; conditions: Homo sapiens
Method in brief: (§2)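 ATP-based luminescence (Cell Titer-Glo 2.0) measured viability after 72 h (KG-1, RT112/84) or 120 h (MDA-MB-453, HuH7) compound exposure. Dosing was nine 4-fold steps starting at 3 μM, in triplicate, on overnight-plated cells. IC50 came from a variable-slope 4-parameter fit of % DMSO control.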

[8] = test system: RT112/84 cell line (FGFR3-fusion); assay: as above; type: cell-based; conditions: Homo sapiens
Method in brief: as §2

[9] = V555M mutant, read-out: FGFR3 (V555M) (Kd nM)
[10] = KG-1, KG-1 cell line (FGFR1-fusion)
[11] = RT112/84, RT112/84 cell line (FGFR3-fusion)
[12] = RT112/84 cell line (FGFR3-fusion)

T3 sequence (P11362 22-822): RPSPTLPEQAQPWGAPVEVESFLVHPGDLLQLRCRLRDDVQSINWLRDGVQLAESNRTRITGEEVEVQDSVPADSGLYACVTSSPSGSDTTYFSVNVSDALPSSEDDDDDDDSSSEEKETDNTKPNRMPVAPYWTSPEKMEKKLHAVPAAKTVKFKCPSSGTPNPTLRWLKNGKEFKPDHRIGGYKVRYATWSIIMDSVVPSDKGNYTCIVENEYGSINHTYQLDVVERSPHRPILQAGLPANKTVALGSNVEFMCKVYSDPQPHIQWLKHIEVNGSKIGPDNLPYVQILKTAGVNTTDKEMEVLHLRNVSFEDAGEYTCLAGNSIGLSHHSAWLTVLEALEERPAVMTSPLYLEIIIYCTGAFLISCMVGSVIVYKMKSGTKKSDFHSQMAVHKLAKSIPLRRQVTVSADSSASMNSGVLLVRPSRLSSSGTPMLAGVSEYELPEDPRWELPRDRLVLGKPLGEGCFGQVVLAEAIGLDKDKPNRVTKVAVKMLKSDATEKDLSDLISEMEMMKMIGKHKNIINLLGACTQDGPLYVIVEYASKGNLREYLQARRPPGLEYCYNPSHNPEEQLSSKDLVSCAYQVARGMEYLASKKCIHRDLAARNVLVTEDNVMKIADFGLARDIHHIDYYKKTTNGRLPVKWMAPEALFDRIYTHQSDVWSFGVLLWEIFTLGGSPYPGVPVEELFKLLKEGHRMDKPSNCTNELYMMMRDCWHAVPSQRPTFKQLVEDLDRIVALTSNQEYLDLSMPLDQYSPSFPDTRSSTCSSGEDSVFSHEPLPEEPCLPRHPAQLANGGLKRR
T4 sequence (P22455 22-802): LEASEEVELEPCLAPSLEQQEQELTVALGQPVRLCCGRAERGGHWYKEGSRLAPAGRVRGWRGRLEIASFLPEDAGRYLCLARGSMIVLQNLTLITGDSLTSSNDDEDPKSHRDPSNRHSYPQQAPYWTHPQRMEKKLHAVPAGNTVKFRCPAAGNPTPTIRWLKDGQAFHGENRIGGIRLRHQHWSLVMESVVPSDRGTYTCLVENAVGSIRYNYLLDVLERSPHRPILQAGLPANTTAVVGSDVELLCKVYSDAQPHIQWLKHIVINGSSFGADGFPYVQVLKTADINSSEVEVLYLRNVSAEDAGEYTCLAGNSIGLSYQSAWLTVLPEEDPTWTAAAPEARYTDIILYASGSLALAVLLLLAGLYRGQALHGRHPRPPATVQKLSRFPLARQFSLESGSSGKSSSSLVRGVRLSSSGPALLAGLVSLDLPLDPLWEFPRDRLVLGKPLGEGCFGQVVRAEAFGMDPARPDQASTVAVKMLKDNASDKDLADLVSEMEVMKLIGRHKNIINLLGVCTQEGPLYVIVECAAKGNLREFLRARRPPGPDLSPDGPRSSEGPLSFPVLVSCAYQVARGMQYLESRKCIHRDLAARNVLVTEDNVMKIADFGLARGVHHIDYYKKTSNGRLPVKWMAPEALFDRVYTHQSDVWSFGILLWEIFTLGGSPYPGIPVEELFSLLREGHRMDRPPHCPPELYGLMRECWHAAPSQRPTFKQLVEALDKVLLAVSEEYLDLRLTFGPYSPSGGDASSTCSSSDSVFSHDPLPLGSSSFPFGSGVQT
T2 sequence (P21802 22-821): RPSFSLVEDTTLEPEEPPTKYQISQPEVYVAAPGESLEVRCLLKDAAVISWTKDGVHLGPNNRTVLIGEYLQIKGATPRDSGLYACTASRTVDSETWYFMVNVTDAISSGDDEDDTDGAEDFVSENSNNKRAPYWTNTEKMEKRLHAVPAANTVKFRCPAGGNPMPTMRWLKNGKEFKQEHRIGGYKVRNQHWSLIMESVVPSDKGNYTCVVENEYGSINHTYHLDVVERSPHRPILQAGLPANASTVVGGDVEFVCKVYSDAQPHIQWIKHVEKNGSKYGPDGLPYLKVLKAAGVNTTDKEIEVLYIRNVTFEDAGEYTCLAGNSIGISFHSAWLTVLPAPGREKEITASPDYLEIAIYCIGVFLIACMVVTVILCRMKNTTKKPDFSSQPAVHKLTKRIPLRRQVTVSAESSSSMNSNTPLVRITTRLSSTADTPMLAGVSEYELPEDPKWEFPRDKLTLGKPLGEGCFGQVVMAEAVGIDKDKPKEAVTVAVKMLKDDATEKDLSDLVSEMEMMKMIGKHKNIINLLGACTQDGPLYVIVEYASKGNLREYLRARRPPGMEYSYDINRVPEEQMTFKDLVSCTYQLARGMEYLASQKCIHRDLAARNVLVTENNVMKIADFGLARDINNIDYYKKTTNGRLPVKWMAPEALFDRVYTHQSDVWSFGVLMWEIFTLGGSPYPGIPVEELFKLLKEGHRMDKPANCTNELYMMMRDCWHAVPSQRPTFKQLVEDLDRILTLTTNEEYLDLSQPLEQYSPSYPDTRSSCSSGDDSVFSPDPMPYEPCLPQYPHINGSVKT
T5 sequence (P22607 23-806 V555M): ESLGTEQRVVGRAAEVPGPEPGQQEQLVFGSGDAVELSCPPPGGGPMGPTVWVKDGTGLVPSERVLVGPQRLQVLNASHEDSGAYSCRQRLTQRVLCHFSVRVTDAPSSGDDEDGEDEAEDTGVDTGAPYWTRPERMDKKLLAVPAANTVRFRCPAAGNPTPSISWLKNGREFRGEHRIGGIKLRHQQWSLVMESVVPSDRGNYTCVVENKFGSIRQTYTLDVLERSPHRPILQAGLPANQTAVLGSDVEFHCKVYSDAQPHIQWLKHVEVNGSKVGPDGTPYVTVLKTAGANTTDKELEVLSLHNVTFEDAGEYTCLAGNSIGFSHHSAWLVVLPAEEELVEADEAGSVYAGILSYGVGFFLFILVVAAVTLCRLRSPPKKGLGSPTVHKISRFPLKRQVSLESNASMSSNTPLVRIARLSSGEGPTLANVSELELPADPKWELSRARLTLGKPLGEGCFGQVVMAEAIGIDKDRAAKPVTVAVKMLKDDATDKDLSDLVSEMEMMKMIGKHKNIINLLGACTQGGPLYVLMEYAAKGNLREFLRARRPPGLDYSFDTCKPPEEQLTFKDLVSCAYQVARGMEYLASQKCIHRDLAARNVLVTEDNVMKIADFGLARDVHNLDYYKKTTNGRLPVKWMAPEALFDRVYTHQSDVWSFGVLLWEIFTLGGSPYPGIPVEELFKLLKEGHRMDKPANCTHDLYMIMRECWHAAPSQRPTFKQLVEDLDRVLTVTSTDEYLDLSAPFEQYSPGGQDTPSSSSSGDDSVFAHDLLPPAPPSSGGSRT
T1 sequence (P22607 23-806): as the sequence (P22607 23-806 V555M) above, with M533V counted along it

SMILES	Kd ([1]; read-out: FGFR3 (Kd nM))	Kd ([2]; read-out: FGFR2 (Kd nM))	Kd ([3]; read-out: FGFR1 (Kd nM))	Kd ([4]; read-out: FGFR4 (Kd nM))	Kd [5, 9]	IC50 ([6]; KATO III)	IC50 [7, 10]	IC50 [8, 11]	IC50 [6]	IC50 ([7]; KG-1 cell line (FGFR1-fusion))	IC50 [8, 12]	Kd [1]	Kd ([2]; FGFR2 (Kd nM))	Kd [3]	Kd [4]	Kd [5]
C[C@@H](Oc1ccc2[nH]nc(-c3cnc(N4CC(C)(NCC(C)(C)O)C4)c(F)c3)c2c1F)c1c(Cl)cncc1Cl [Example 170, (R)-1-((1-(5-(5-(1-(3,5-dichloro-pyridin-4-yl)ethoxy)-4-fluoro-1H-indazol-3-yl)-3-fluoropyridin-2-yl)-3-methylazetidin-3-yl)amino)-2-methylpropan-2-ol]	50 to 300 nM	> 1000 nM	> 1000 nM	300 to 1000 nM	50 to 300 nM	> 1000 nM	> 1000 nM	> 1000 nM								
COP(=O)(CC1(C)CN(c2ccc(-c3n[nH]c4ccc(O[C@H](C)c5c(Cl)cncc5Cl)cc34)cn2)C1)OC [Example 214, (R)-dimethyl ((1-(5-(5-(1-(3,5-dichloropyridin-4-yl)ethoxy)-1H-indazol-3-yl)pyridin-2-yl)-3-methylazetidin-3-yl)methyl)phosphonate]	1 to 50 nM	1 to 50 nM	1 to 50 nM	1 to 50 nM	1 to 50 nM				0.1 to 50 nM	50 to 200 nM	0.1 to 50 nM					
COP(=O)(CC1(C)CN(c2ncc(-c3n[nH]c4ccc(O[C@H](C)c5c(Cl)cncc5Cl)cc34)cc2F)C1)OC [Example 215, (R)-dimethyl ((1-(5-(5-(1-(3,5-dichloropyridin-4-yl)ethoxy)-1H-indazol-3-yl)-3-fluoropyridin-2-yl)-3-methylazetidin-3-yl)methyl)phos-phonate]									50 to 200 nM	50 to 200 nM	0.1 to 50 nM	1 to 50 nM	1 to 50 nM	1 to 50 nM	1 to 50 nM	1 to 50 nM
C[C@@H](Oc1ccc2[nH]nc(-c3cnc(N4CC(C)(N5CC6CC(C5)O6)C4)c(F)c3)c2c1)c1c(Cl)cncc1Cl [Example 217, 3-(1-(5-(5-((R)-1-(3,5-dichloropyridin-4-yl)ethoxy)-1H-indazol-3-yl)-3-fluoropyridin-2-yl)-3-methylazetidin-3-yl)-6-oxa-3-aza-bicyclo[3.1.1]hep-tane]	1 to 50 nM	1 to 50 nM	1 to 50 nM	1 to 50 nM	1 to 50 nM	0.1 to 50 nM	50 to 200 nM	0.1 to 50 nM								
C[C@@H](Oc1ccc2[nH]nc(-c3cnc(N4CC(C)(N5C[C@@H]6C[C@H]5CO6)C4)c(F)c3)c2c1)c1c(Cl)cncc1Cl [Example 218, (1S,4S)-5-(1-(5-(5-((R)-1-(3,5-dichloropyridin-4-yl)ethoxy)-1H-indazol-3-yl)-3-fluoropyridin-2-yl)-3-methylazetidin-3-yl)-2-oxa-5-aza-bicyclo[2.2.1]hep-tane]	1 to 50 nM	1 to 50 nM	1 to 50 nM	1 to 50 nM	1 to 50 nM	0.1 to 50 nM	0.1 to 50 nM	0.1 to 50 nM								
C[C@@H](Oc1ccc2[nH]nc(-c3ccc(N4CC(C)(N5CC6CC(C5)O6)C4)nc3)c2c1)c1c(Cl)cncc1Cl [Example 222, 3-(1-(5-(5-((R)-1-(3,5-dichloropyridin-4-yl)ethoxy)-1H-indazol-3-yl)pyridin-2-yl)-3-methylazetidin-3-yl)-6-oxa-3-aza-bicyclo[3.1.1]hep-tane]	1 to 50 nM	1 to 50 nM	1 to 50 nM	1 to 50 nM	1 to 50 nM	0.1 to 50 nM	0.1 to 50 nM	0.1 to 50 nM								
C[C@@H](Oc1ccc2[nH]nc(-c3cnc(N4CC(C)(N5C[C@H]6C[C@@H]5CO6)C4)c(F)c3)c2c1)c1c(Cl)cncc1Cl [Example 223, (1R,4R)-5-(1-(5-(5-((R)-1-(3,5-dichloropyridin-4-yl)ethoxy)-1H-indazol-3-yl)-3-fluoropyridin-2-yl)-3-methylazetidin-3-yl)-2-oxa-5-aza-bicyclo[2.2.1]hep-tane]	1 to 50 nM	1 to 50 nM	1 to 50 nM	1 to 50 nM	1 to 50 nM	0.1 to 50 nM	50 to 200 nM	0.1 to 50 nM								

The next lines start with results.

Kd ([1]; read-out: FGFR3 (Kd nM))	Kd ([2]; read-out: FGFR2 (Kd nM))	Kd ([3]; read-out: FGFR1 (Kd nM))	Kd ([4]; read-out: FGFR4 (Kd nM))	Kd [5, 9]	IC50 ([6]; KATO III)	IC50 [7, 10]	IC50 [8, 11]	SMILES	IC50 [6]	IC50 ([7]; KG-1 cell line (FGFR1-fusion))	IC50 [8, 12]	Kd [1]	Kd ([2]; FGFR2 (Kd nM))	Kd [3]	Kd [4]	Kd [5]
1 to 50 nM	1 to 50 nM	1 to 50 nM	1 to 50 nM	1 to 50 nM	0.1 to 50 nM	0.1 to 50 nM	0.1 to 50 nM	COc1cc2[nH]nc(-c3cnc(N4CC(C)(NC[C@@H](C)O)C4)c(F)c3)c2cc1O[C@H](C)c1c(Cl)cncc1Cl [Example 161, (R)-1-((1-(5-(5-((R)-1-(3,5-dichloropyridin-4-yl)ethoxy)-6-methoxy-1H-indazol-3-yl)-3-fluoropyridin-2-yl)-3-methylazetidin-3-yl)amino)propan-2-ol]								
1 to 50 nM	1 to 50 nM	1 to 50 nM	1 to 50 nM	1 to 50 nM	0.1 to 50 nM	0.1 to 50 nM	0.1 to 50 nM	CNC1(C)CN(c2ncc(-c3n[nH]c4ccc(O[C@H](C)c5c(Cl)cncc5Cl)cc34)cc2F)C1 [Example 171, (R)-1-(5-(5-(1-(3,5-dichloropyridin-4-yl)ethoxy)-1H-indazol-3-yl)-3-fluoropyridin-2-yl)-N,3-dimethylazetidin-3-amine]								
1 to 50 nM	1 to 50 nM	1 to 50 nM	1 to 50 nM	1 to 50 nM	50 to 200 nM	50 to 200 nM	50 to 200 nM	Cc1ncc(Cl)c([C@@H](C)Oc2ccc3[nH]nc(-c4cnc(N5CC(C)(NCC6CC6)C5)c(F)c4)c3c2)c1Cl [Example 209, N-(cyclo-propylmethyl)-1-[5-[5-[(1R)-1-(3,5-dichloro-2-methyl-4-pyridyl)ethoxy]-1H-indazol-3-yl]-3-fluoro-2-pyridyl]-3-methyl-azetidin-3-amine]								
1 to 50 nM	1 to 50 nM	50 to 300 nM	1 to 50 nM	1 to 50 nM	50 to 200 nM	200 to 1000 nM	0.1 to 50 nM	Cc1ncc(Cl)c([C@@H](C)Oc2ccc3[nH]nc(-c4cnc(N5CC(C)(CS(C)(=O)=O)C5)c(F)c4)c3c2)c1Cl [Example 210, 5-[(1R)-1-(3,5-dichloro-2-methyl-4-pyridyl)ethoxy]-3-[5-fluoro-6-[3-methyl-3-(methylsulfonyl-methyl)azetidin-1-yl]-3-pyridyl]-1H-indazole]								
1 to 50 nM	1 to 50 nM	1 to 50 nM	1 to 50 nM	1 to 50 nM	0.1 to 50 nM	50 to 200 nM	0.1 to 50 nM	C[C@@H]1CN(C2(C)CN(c3ccc(-c4n[nH]c5ccc(O[C@H](C)c6c(Cl)cncc6Cl)cc45)cn3)C2)CCO1 [Example 211, (R)-4-(1-(5-(5-((R)-1-(3,5-dichloropyridin-4-yl)ethoxy)-1H-indazol-3-yl)pyridin-2-yl)-3-methylazetidin-3-yl)-2-methylmorpholine]								
1 to 50 nM	1 to 50 nM	1 to 50 nM	1 to 50 nM	1 to 50 nM	0.1 to 50 nM	50 to 200 nM	0.1 to 50 nM	C[C@H]1CN(C2(C)CN(c3ccc(-c4n[nH]c5ccc(O[C@H](C)c6c(Cl)cncc6Cl)cc45)cn3)C2)CCO1 [Example 212, (S)-4-(1-(5-(5-((R)-1-(3,5-dichloropyridin-4-yl)ethoxy)-1H-indazol-3-yl)pyridin-2-yl)-3-methylazetidin-3-yl)-2-methylmorpholine]								
1 to 50 nM	1 to 50 nM	1 to 50 nM	1 to 50 nM	1 to 50 nM	50 to 200 nM	200 to 1000 nM	0.1 to 50 nM	C[C@@H]1CN(C2(C)CN(c3ncc(-c4n[nH]c5ccc(O[C@H](C)c6c(Cl)cncc6Cl)cc45)cc3F)C2)CCO1 [Example 213, (R)-4-(1-(5-(5-((R)-1-(3,5-dichloropyridin-4-yl)ethoxy)-1H-indazol-3-yl)-3-fluoropyridin-2-yl)-3-methylazetidin-3-yl)-2-methylmorpholine]								
1 to 50 nM	1 to 50 nM	1 to 50 nM	1 to 50 nM	1 to 50 nM	50 to 200 nM	50 to 200 nM	0.1 to 50 nM	C[C@H]1CN(C2(C)CN(c3ncc(-c4n[nH]c5ccc(O[C@H](C)c6c(Cl)cncc6Cl)cc45)cc3F)C2)CCO1 [Example 216, (S)-4-(1-(5-(5-((R)-1-(3,5-dichloropyridin-4-yl)ethoxy)-1H-indazol-3-yl)-3-fluoropyridin-2-yl)-3-methylazetidin-3-yl)-2-methylmorpholine]								

— patent publication US20250368666A1, “INDAZOLE COMPOUNDS” (TYRA BIOSCIENCES, INC., priority 2022, published 2025)
